Experimental data published in ChEMBL document CHEMBL2146468, “Thrombin inhibitors from the freshwater cyanobacterium Anabaena compacta” (J Nat Prod, 2012).

What was measured:
Prothrombin [1] = biological target: Prothrombin (Homo sapiens, UniProt P00734); assay: Inhibition of thrombin
Cathepsin B = Cathepsin B (Homo sapiens, UniProt P07858); assay: Inhibition of cathepsin B using Z-Phe-Arg-MCA as substrate incubated for 10 mins prior to substrate addition measured after 30 mins by fluorimetric analysis
Plasminogen = Plasminogen (Homo sapiens, UniProt P00747); assay: Inhibition of plasmin
Prothrombin [2] = biological target: Prothrombin (Bos taurus, UniProt P00735); assay: Inhibition of bovine thrombin using Bz-Phe-Val-Arg-pNA as substrate incubated for 5 mins prior to substrate addition measured after 30 mins by spectrophotometric analysis
[3] = Inhibition of trypsin
[4] = Selectivity ratio of EC50 for bovine thrombin to EC50 for cathepsin B

Chain of Plasminogen (P00747 97-580 limits assumed): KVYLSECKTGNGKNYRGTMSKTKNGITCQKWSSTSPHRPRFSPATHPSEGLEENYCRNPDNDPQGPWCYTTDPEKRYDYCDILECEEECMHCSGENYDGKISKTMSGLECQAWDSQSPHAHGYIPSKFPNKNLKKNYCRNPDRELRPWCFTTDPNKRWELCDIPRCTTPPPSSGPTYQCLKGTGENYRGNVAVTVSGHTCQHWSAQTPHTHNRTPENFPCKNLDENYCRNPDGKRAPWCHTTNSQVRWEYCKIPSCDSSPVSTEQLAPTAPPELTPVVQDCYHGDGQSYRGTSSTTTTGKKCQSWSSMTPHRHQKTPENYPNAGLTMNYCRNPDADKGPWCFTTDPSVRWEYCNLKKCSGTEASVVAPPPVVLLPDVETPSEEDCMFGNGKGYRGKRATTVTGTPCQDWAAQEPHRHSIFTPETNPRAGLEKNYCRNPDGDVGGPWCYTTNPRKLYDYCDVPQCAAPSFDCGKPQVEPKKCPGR
Chain of Plasminogen (P00747 581-810 limits assumed): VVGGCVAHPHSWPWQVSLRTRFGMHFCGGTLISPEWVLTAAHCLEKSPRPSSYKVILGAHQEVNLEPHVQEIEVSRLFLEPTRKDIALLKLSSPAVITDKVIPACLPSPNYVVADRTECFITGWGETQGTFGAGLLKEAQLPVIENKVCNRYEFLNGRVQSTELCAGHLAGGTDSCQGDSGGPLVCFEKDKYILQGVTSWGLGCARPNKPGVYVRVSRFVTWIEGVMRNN

EC50 (Prothrombin [1]) | EC50 (Cathepsin B) | EC50 (Plasminogen) | EC50 (Prothrombin [2]) | EC50 [3] | Ratio EC50 [4] | SMILES
7.5 µM | 0.2 µM | 4.9 µM | 2.1 µM |  |  | C[C@H]1C[C@@H](C(=O)N[C@H](CO)CCCN=C(N)N)N(C(=O)[C@@H](CCc2ccc(O)cc2)NC(=O)[C@H](O)Cc2ccc(O)cc2)C1 [SPUMIGIN A]
 |  |  |  | 33.1 µM |  | C[C@H]1C[C@@H](C(=O)N[C@@H](CCCNC(=N)N)C(=O)O)N(C(=O)[C@@H](CCc2ccc(O)cc2)NC(=O)[C@H](O)Cc2ccc(O)cc2)C1 [SPUMIGIN B1]
 | 0.7 µM |  | 4.9 µM |  | 7 | C[C@H]1C[C@@H](C(=O)N(C)[C@H](CCCCN)C(=O)O)N(C(=O)[C@@H](CCc2ccc(O)cc2)NC(=O)[C@H](O)Cc2ccc(O)cc2)C1 [SPUMIGIN J]
 |  |  |  | 0.3 µM |  | C[C@H]1C[C@@H](C(=O)NC(C=O)CCCNC(=N)N)N(C(=O)[C@@H](CCc2ccc(O)cc2)NC(=O)[C@H](O)Cc2ccc(O)cc2)C1 (stereo partly specified) [SPUMIGIN E]
 |  |  |  | 26.3 µM | 10 | C[C@H]1C[C@@H](C(=O)N[C@H](CO)CCCNC(=N)N)N(C(=O)[C@@H](CCc2ccc(O)cc2)NC(=O)[C@H](O)Cc2ccc(O)cc2)C1 [SPUMIGIN A]
